From article doi:10.1101/466938v1, “The distinct biochemical property enables thymidylate kinase as a drug target and participates in pyrimidine drug sensitivity in Candida albicans” (biorxiv, 2018)
Values after ≈ are worked out from the molar mass of the structure shown. Read-outs that look alike come from different tables or passages of the source.

Key:
Test in all cases: microbe, parasite or virus in culture
Parameters in all cases: species or system Candida albicans strains; Sensititre YeastOne SYO-09 colorimetric microdilution, visual MIC at >=50% growth inhibition
[1] = test system: T1, Candida albicans F2015b076; conditions: F2015B076, 24 h
T1 construct: F2015b076
Description: (§1) Minimum inhibitory concentrations (MICs) of 5-FUrd were determined by broth microdilution method in accordance with the guidelines in Clinical and Laboratory Standards Institute (CLSI) document M27[25], using RPMI 1640 medium containing 0.165 M MOPs (pH 7.0) and 0.2% glucose, an inoculum of 10^3 cells/well, and incubated for 24 hr at 35°C, followed by OD600 reading by TECAN SPARK plate reader. The MIC50 of 5-FUrd was determined as the lowest dosage of 5-FUrd causing 50% inhibition of the growth by using the concentrations in the range of 0.004-2μg/mL. MICs of […] of human use (5-FC; four azoles: posaconazole, voriconazole, itraconazole, fluconazole; and three echinocandins: anidulafungin, caspofungin and micafungin) were determined by the microdilution colorimetric Sensititre YeastOne SYO-09 panel (TREK Diagnostic Systems, Cleveland, OH, USA); in accordance with the manufacturer’s instructions. MICs values were determined visually, after 24 hours of incubation, as the lowest concentration of drug that caused complete inhibition (amphotericin B) or a significant diminution (≥50% inhibition; flucytosine, azoles and echinocandins) of growth relative to that of the growth control. Table 2. Minimum inhibitory concentrations of 5-FUrd and antifungal drugs of clinical used for pathogenic and drug-resistant isolates of Candida albicans^a

[2] = test system: T2, Candida albicans F2014f090; conditions: F2014F090, 24 h
T2 construct: F2014f090
Description: as §1

[3] = test system: T3, Candida albicans F2016f024; conditions: F2016F024, 24 h
T3 construct: F2016f024
Description: as §1

[4] = test system: T4, Candida albicans F2016a067; conditions: F2016A067, 24 h
T4 construct: F2016a067
Description: as §1

[5] = test system: T5, Candida albicans F2016g048; conditions: F2016G048, 24 h
T5 construct: F2016g048
Description: as §1

[6] = test system: T6, Candida albicans F2016c087; conditions: F2016C087, 24 h
T6 construct: F2016c087
Description: as §1

[7] = test system: T7, Candida albicans F2015f019; conditions: F2015F019, 24 h
T7 construct: F2015f019
Description: as §1

[8] = test system: T8, Candida albicans F2014a093; conditions: F2014A093, 24 h
T8 construct: F2014a093
Description: as §1

[9] = test system: T9, Candida albicans F2016e085; conditions: F2016E085, 24 h
T9 construct: F2016e085
Description: as §1

Candida albicans SC5314 = test system: T10, Candida albicans SC5314; conditions: SC5314, 24 h
T10 construct: SC5314
Description: as §1

[10] = test system: T11, Candida albicans F2017g023; conditions: F2017G023, 24 h
T11 construct: F2017g023
Description: as §1

[11] = test system: T12, Candida albicans ATCC90028; conditions: ATCC90028, 24 h
T12 construct: ATCC 90028
Description: as §1

[12] = read-out: Voriconazole MIC (µg/mL)
[13] = read-out: Itraconazole MIC (µg/mL)
[14] = read-out: Posaconazole MIC (µg/mL)
[15] = read-out: Fluconazole MIC (µg/mL)

C[C@@H](c1ncncc1F)[C@](O)(Cn1cncn1)c1ccc(F)cc1F [Voriconazole, voriconazole]
MIC [1, 12]: > 8 µg/mL | MIC [2, 12]: 0.25 µg/mL (≈ 0.716 µM) | MIC [3, 12]: 0.5 µg/mL (≈ 1.43 µM) | MIC [4, 12]: 0.03 µg/mL (≈ 0.0859 µM) | MIC [5, 12]: > 8 µg/mL | MIC [6, 12]: 0.015 µg/mL (≈ 0.0429 µM) | MIC [7, 12]: 0.06 µg/mL (≈ 0.172 µM) | MIC [8, 12]: > 8 µg/mL | MIC [9, 12]: 0.004 µg/mL (≈ 0.0115 µM) | MIC (Candida albicans SC5314; [12]): 0.015 µg/mL (≈ 0.0429 µM) | MIC [10, 12]: 0.004 µg/mL (≈ 0.0115 µM) | MIC [11, 12]: 0.015 µg/mL (≈ 0.0429 µM)

CCC(C)n1ncn(-c2ccc(N3CCN(c4ccc(OC[C@H]5CO[C@](Cn6cncn6)(c6ccc(Cl)cc6Cl)O5)cc4)CC3)cc2)c1=O (mixture of isomers) [Itraconazole, itraconazole]
MIC [1, 13]: 0.5 µg/mL | MIC [2, 13]: > 16 µg/mL | MIC [3, 13]: 0.12 µg/mL | MIC [4, 13]: > 16 µg/mL | MIC [5, 13]: 1 µg/mL | MIC [6, 13]: 0.12 µg/mL | MIC [7, 13]: 0.12 µg/mL | MIC [8, 13]: > 16 µg/mL | MIC [9, 13]: 0.03 µg/mL | MIC (Candida albicans SC5314; [13]): 0.06 µg/mL | MIC [10, 13]: 0.06 µg/mL | MIC [11, 13]: 0.06 µg/mL

Nc1[nH]c(=O)ncc1F [5-FC, 5-flucytosine]
MIC ([1]; read-out: 5-FC MIC (µg/mL)): 0.03 µg/mL (≈ 0.232 µM) | MIC ([2]; read-out: 5-FC MIC (µg/mL)): 0.12 µg/mL (≈ 0.93 µM) | MIC ([3]; read-out: 5-FC MIC (µg/mL)): 0.03 µg/mL (≈ 0.232 µM) | MIC ([4]; read-out: 5-FC MIC (µg/mL)): 0.03 µg/mL (≈ 0.232 µM) | MIC ([5]; read-out: 5-FC MIC (µg/mL)): 0.03 µg/mL (≈ 0.232 µM) | MIC ([6]; read-out: 5-FC MIC (µg/mL)): > 64 µg/mL | MIC ([7]; read-out: 5-FC MIC (µg/mL)): 0.03 µg/mL (≈ 0.232 µM) | MIC ([8]; read-out: 5-FC MIC (µg/mL)): 0.03 µg/mL (≈ 0.232 µM) | MIC ([9]; read-out: 5-FC MIC (µg/mL)): 8 µg/mL (≈ 62 µM) | MIC (Candida albicans SC5314; read-out: 5-FC MIC (µg/mL)): 0.06 µg/mL (≈ 0.465 µM) | MIC ([10]; read-out: 5-FC MIC (µg/mL)): > 64 µg/mL | MIC ([11]; read-out: 5-FC MIC (µg/mL)): 0.5 µg/mL (≈ 3.87 µM)

CC[C@@H]([C@H](C)O)n1ncn(-c2ccc(N3CCN(c4ccc(OC[C@@H]5CO[C@@](Cn6cncn6)(c6ccc(F)cc6F)C5)cc4)CC3)cc2)c1=O [Posaconazole, posaconazole]
MIC [1, 14]: 1 µg/mL (≈ 1.43 µM) | MIC [2, 14]: > 8 µg/mL | MIC [3, 14]: 0.25 µg/mL (≈ 0.357 µM) | MIC [4, 14]: 0.03 µg/mL (≈ 0.0428 µM) | MIC [5, 14]: 1 µg/mL (≈ 1.43 µM) | MIC [6, 14]: 0.06 µg/mL (≈ 0.0856 µM) | MIC [7, 14]: 0.12 µg/mL (≈ 0.171 µM) | MIC [8, 14]: > 8 µg/mL | MIC [9, 14]: 0.015 µg/mL (≈ 0.0214 µM) | MIC (Candida albicans SC5314; [14]): 0.015 µg/mL (≈ 0.0214 µM) | MIC [10, 14]: 0.03 µg/mL (≈ 0.0428 µM) | MIC [11, 14]: 0.06 µg/mL (≈ 0.0856 µM)

OC(Cn1cncn1)(Cn1cncn1)c1ccc(F)cc1F [Fluconazole, fluconazole]
MIC [1, 15]: 256 µg/mL (≈ 836 µM) | MIC [2, 15]: 2 µg/mL (≈ 6.53 µM) | MIC [3, 15]: 8 µg/mL (≈ 26.1 µM) | MIC [4, 15]: 64 µg/mL (≈ 209 µM) | MIC [5, 15]: 256 µg/mL (≈ 836 µM) | MIC [6, 15]: 0.5 µg/mL (≈ 1.63 µM) | MIC [7, 15]: 4 µg/mL (≈ 13.1 µM) | MIC [8, 15]: > 256 µg/mL | MIC [9, 15]: 0.06 µg/mL (≈ 0.196 µM) | MIC (Candida albicans SC5314; [15]): 0.5 µg/mL (≈ 1.63 µM) | MIC [10, 15]: 0.5 µg/mL (≈ 1.63 µM) | MIC [11, 15]: 1 µg/mL (≈ 3.27 µM)
